Tests used:
b.END.3 cell monolayer = experiment: TEER / impedance of b.END.3 cell monolayer after chemical treatment in microfluidic chip; assay type: cell-based, mouse
Description: Cell Seeding and Culture. Epithelial (MDCK-2) and endothelial (b.END.3) cell lines were selected because they offered well characterized and accepted TEER values to compare with the experimental results. […] All cell lines were cultured in endothelial growth media (DMEM with 10% fetal bovine serum and 1% penicillin/streptomycin) prior to seeding in the microfluidic chip. The microfluidic chip was exposed to plasma oxygen for 5 min to make hydrophilic. Prior to cell seeding, fibronectin solution (Invitrogen) at a concentration of 100 μg/mL in phosphate buffered saline (PBS) was injected into the upper (endothelial) channel to promote cell adhesion. The lower channel was preloaded with growth media. […]
Resolving TEER from Circuit Model. In order to resolve the TEER value from the experimental impedance spectra, the control impedance spectra (taken from the same chip just before cell seeding) was subtracted from the measured impedance spectra (with cells) to eliminate the effect from electrolyte, membrane, and electrode-electrolyte interfaces and simplify the analysis. […]

b.End3 monolayers = experiment: Paracellular permeability across b.End3 monolayers in transwells and layered microfluidic devices
Description: The permeability of [^14C]-mannitol as a function of days across b.End3 cells cultured in transwells and layered microfluidic channels was measured. […] Consequently, mannitol has been routinely used to assess the paracellular permeability of epithelial and endothelial monolayers.
Permeability experiments were performed at 3, 6, 9, 12, 15, 18, and 21 days in culture for all three marker molecules with five replicates for both the transwells and the layered microfluidic devices. Briefly, cells grown in both the transwells and the layered microfluidic devices under static condition were removed from the incubator and washed twice by replacing culture medium with PBS solution. PBS solutions were then aspirated and replaced by the designated solution with radioactively labeled marker molecules at the apical (top) compartment. All transwells and layered microfluidic devices were then placed onto the shaker at 100 rpm inside the incubator at 37° C., 95% air, and 5% CO2 for a total of 60 minutes. At every 10 minute interval, the transwells and the layered microfluidic devices were taken out of the incubator; the PBS solutions from the basolateral compartments were collected and replaced by fresh PBS solutions. At the end of the 1 hour incubation time, the solutions in both the apical and basolateral compartments were collected. All the samples collected during the experiments were measured using liquid scintillation counter which evaluates the radioactivity of each sample in the unit of count per minute (CPM). CPMs from all samples are then converted into concentration using the standard dilution scheme.
The permeability of a given molecule across the monolayer was calculated by suing a derived form of a differential equation based on Fick's Law: […]
The unit of measurement cm/s for permeability coefficient is commonly used.

Row | lower permeability in layered microfluidic channels compared to transwells (b.End3 monolayers; Example 2, b.End3, as a function of days in culture (FIG. 11)) [fold] | lower permeability across b.End3 monolayers in layered microfluidic devices compared to transwells (b.End3 monolayers; Example 5, after 9 days in culture (FIG. 11A)) [fold] | permeability relative to the large markers in layered microfluidic devices (size selectivity) (b.End3 monolayers; day 3 and day 6 in culture (FIG. 11E)) | Compound | impedance of the entire system following treatment (b.END.3 cell monolayer; all frequency points, 30 min, 0.1% in DMEM) | TEER (paracellular resistance) after treatment (b.END.3 cell monolayer; b.END.3 monolayer treated 30 min with 0.1% in DMEM, before treatment 161.51±0.755 Ωcm^2)
1 | – | – | – | TritonX-100 | decreased significantly | 39.73±1.925 Ωcm^2
2 | 15 | 10 | higher permeability | OC[C@@H](O)[C@@H](O)[C@H](O)[C@H](O)CO [[^14C]-mannitol, [^14C]-D-Mannitol] | – | –
